± gives the uncertainty stated by the source.
Test: xn = mol fraction of the nth substance listed

CC(=O)CC(C)C + Cc1ccccc1
298.15 K, 101 kPa
Conditions	viscosity [mPa·s]
x1 = 0.1094	0.545 ± 0.006
x1 = 0.207	0.541 ± 0.006
x1 = 0.3183	0.539 ± 0.006
x1 = 0.4196	0.538 ± 0.006
x1 = 0.5357	0.537 ± 0.006
x1 = 0.6441	0.544 ± 0.006
x1 = 0.7653	0.539 ± 0.006
x1 = 0.8774	0.541 ± 0.006

CC(C)CC(C)(C)C + Cc1ccccc1
101 kPa
Conditions	viscosity [mPa·s]
298.15 K, x1 = 0.1138	0.519 ± 0.004
298.15 K, x1 = 0.2032	0.498 ± 0.004
298.15 K, x1 = 0.2796	0.485 ± 0.004
298.15 K, x1 = 0.3319	0.477 ± 0.004
298.15 K, x1 = 0.4044	0.47 ± 0.004
298.15 K, x1 = 0.4365	0.467 ± 0.003
298.15 K, x1 = 0.4983	0.464 ± 0.003
298.15 K, x1 = 0.618	0.459 ± 0.003
298.15 K, x1 = 0.6934	0.458 ± 0.003
298.15 K, x1 = 0.7315	0.461 ± 0.004
298.15 K, x1 = 0.8036	0.463 ± 0.004
298.15 K, x1 = 0.8966	0.467 ± 0.004
298.15 K, x1 = 0.9292	0.47 ± 0.004
298.15 K, x1 = 0.9743	0.474 ± 0.004
308.15 K, x1 = 0.0644	0.4877 ± 0.0051
308.15 K, x1 = 0.1217	0.4728 ± 0.005
308.15 K, x1 = 0.1933	0.4593 ± 0.0049
308.15 K, x1 = 0.2715	0.4474 ± 0.0048
308.15 K, x1 = 0.3689	0.4362 ± 0.0047
308.15 K, x1 = 0.4483	0.4305 ± 0.0046
308.15 K, x1 = 0.5805	0.4258 ± 0.0046
308.15 K, x1 = 0.6997	0.425 ± 0.0046
308.15 K, x1 = 0.8297	0.4265 ± 0.0046

CCC(C)N (centres undefined) + Cc1ccccc1
303.15 K, 101 kPa
Conditions	viscosity [mPa·s]
x2 = 0.1499	0.4062 ± 0.0037
x2 = 0.216	0.4085 ± 0.0037
x2 = 0.2959	0.4124 ± 0.0037
x2 = 0.3889	0.419 ± 0.0038
x2 = 0.5124	0.4325 ± 0.0039
x2 = 0.613	0.4492 ± 0.004
x2 = 0.7105	0.4679 ± 0.0041
x2 = 0.8708	0.4998 ± 0.0044

CCCCCCO + Cc1ccccc1
viscosity [mPa·s], 101 kPa
Conditions	x2 = 0.1151	x2 = 0.2265	x2 = 0.3342	x2 = 0.4384	x2 = 0.5394	x2 = 0.6372	x2 = 0.7321	x2 = 0.8241	x2 = 0.9133
303.15 K	2.859 ± 0.023	2.167 ± 0.018	1.692 ± 0.014	1.351 ± 0.011	1.099 ± 0.009	0.882 ± 0.0076	0.7364 ± 0.0065	0.6235 ± 0.0056	0.5592 ± 0.0051
313.15 K	2.206 ± 0.018	1.701 ± 0.014	1.341 ± 0.011	1.097 ± 0.009	0.9164 ± 0.008	0.7593 ± 0.0067	0.6439 ± 0.0058	0.5569 ± 0.0051	0.5069 ± 0.0048
323.15 K	1.661 ± 0.014	1.321 ± 0.011	1.057 ± 0.009	0.8845 ± 0.0078	0.7532 ± 0.0067	0.6516 ± 0.0059	0.5418 ± 0.0051	0.4674 ± 0.0045	0.4336 ± 0.0042

CCOCC + Cc1ccccc1
viscosity [mPa·s], 101 kPa
Conditions	293.15 K	298.15 K	303.15 K	308.15 K
x2 = 0.21	0.3 ± 0.008	0.29 ± 0.008	0.281 ± 0.008	0.272 ± 0.007
x2 = 0.45	0.379 ± 0.01	0.36 ± 0.01	0.345 ± 0.009	0.331 ± 0.009
x2 = 0.71	0.468 ± 0.012	0.445 ± 0.012	0.419 ± 0.011	0.404 ± 0.011

O=C1CCCCC1 + Cc1ccccc1
viscosity [mPa·s]
Conditions	298.15 K	303.15 K	308.15 K
101 kPa, x1 = 0.1059	0.615 ± 0.085	–	–
101 kPa, x1 = 0.2177	0.682 ± 0.092	–	–
101 kPa, x1 = 0.3103	0.74 ± 0.099	–	–
101 kPa, x1 = 0.4166	0.829 ± 0.11	–	–
101 kPa, x1 = 0.5047	0.884 ± 0.12	–	–
101 kPa, x1 = 0.6049	0.971 ± 0.12	–	–
101 kPa, x1 = 0.7171	1.218 ± 0.15	–	–
101 kPa, x1 = 0.7943	1.333 ± 0.16	–	–
101 kPa, x1 = 0.9041	1.574 ± 0.19	–	–
101 kPa, x2 = 0.1021	–	1.396 ± 0.016	–
101 kPa, x2 = 0.202	–	1.218 ± 0.014	–
101 kPa, x2 = 0.3024	–	1.068 ± 0.013	–
101 kPa, x2 = 0.4051	–	0.9428 ± 0.011	–
101 kPa, x2 = 0.4964	–	0.8546 ± 0.01	–
101 kPa, x2 = 0.6017	–	0.753 ± 0.009	–
101 kPa, x2 = 0.6963	–	0.6911 ± 0.0083	–
101 kPa, x2 = 0.8022	–	0.6292 ± 0.0076	–
101.33 kPa, x1 = 0.1032	0.61 ± 0.004	0.573 ± 0.004	0.543 ± 0.004
101.33 kPa, x1 = 0.1997	0.668 ± 0.005	0.625 ± 0.004	0.59 ± 0.004
101.33 kPa, x1 = 0.3024	0.738 ± 0.005	0.689 ± 0.005	0.648 ± 0.004
101.33 kPa, x1 = 0.4055	0.824 ± 0.005	0.767 ± 0.005	0.721 ± 0.005
101.33 kPa, x1 = 0.504	0.922 ± 0.006	0.854 ± 0.006	0.799 ± 0.005
101.33 kPa, x1 = 0.602	1.043 ± 0.007	0.972 ± 0.006	0.903 ± 0.006
101.33 kPa, x1 = 0.7012	1.194 ± 0.007	1.103 ± 0.007	1.02 ± 0.007
101.33 kPa, x1 = 0.7999	1.391 ± 0.009	1.273 ± 0.008	1.183 ± 0.007
101.33 kPa, x1 = 0.9027	1.654 ± 0.01	1.505 ± 0.009	1.382 ± 0.009

CCCCCC(=O)O + ClC(Cl)(Cl)Cl
298.15 K, 101 kPa
Conditions	viscosity [mPa·s]
x1 = 0.07	0.966 ± 0.025
x1 = 0.13	1.033 ± 0.027
x1 = 0.19	1.108 ± 0.029
x1 = 0.25	1.188 ± 0.031
x1 = 0.47	1.548 ± 0.04
x1 = 0.57	1.743 ± 0.046
x1 = 0.67	1.927 ± 0.05
x1 = 0.84	2.343 ± 0.061

CC(=O)CC(C)C + ClC(Cl)Cl
298.15 K, 101 kPa
Conditions	viscosity [mPa·s]
x2 = 0.0813	0.5611 ± 0.0053
x2 = 0.1599	0.5799 ± 0.0055
x2 = 0.2352	0.5986 ± 0.0057
x2 = 0.3916	0.6341 ± 0.006
x2 = 0.497	0.6494 ± 0.0062
x2 = 0.6114	0.6521 ± 0.0063
x2 = 0.7252	0.6349 ± 0.0063
x2 = 0.864	0.5903 ± 0.006
x2 = 0.9291	0.5613 ± 0.0057

CCOCC + ClC(Cl)Cl
101.33 kPa
Conditions	viscosity [mPa·s]
293.15 K, x2 = 0.1704	0.295 ± 0.008
293.15 K, x2 = 0.2909	0.354 ± 0.009
293.15 K, x2 = 0.4425	0.416 ± 0.011
293.15 K, x2 = 0.562	0.466 ± 0.012
293.15 K, x2 = 0.6848	0.507 ± 0.013
293.15 K, x2 = 0.8038	0.536 ± 0.014
293.15 K, x2 = 0.8989	0.555 ± 0.014
298.15 K, x1 = 0.274	0.472 ± 0.0033
298.15 K, x1 = 0.528	0.397 ± 0.0028
298.15 K, x1 = 0.672	0.34 ± 0.0024
298.15 K, x1 = 0.863	0.268 ± 0.0019
298.15 K, x2 = 0.1567	0.282 ± 0.007
298.15 K, x2 = 0.3094	0.343 ± 0.009
298.15 K, x2 = 0.4329	0.395 ± 0.01
298.15 K, x2 = 0.5582	0.445 ± 0.012
298.15 K, x2 = 0.6897	0.489 ± 0.013
298.15 K, x2 = 0.8073	0.519 ± 0.013
298.15 K, x2 = 0.8947	0.536 ± 0.014

CCOCC + ClCCl
298.15 K, 101 kPa
Conditions	viscosity [mPa·s]
x1 = 0.113	0.4351 ± 0.0063
x1 = 0.2227	0.4106 ± 0.006
x1 = 0.3294	0.3839 ± 0.0058
x1 = 0.4331	0.3585 ± 0.0055
x1 = 0.5341	0.3342 ± 0.0053
x1 = 0.6322	0.3106 ± 0.005
x1 = 0.7278	0.289 ± 0.0048
x1 = 0.8209	0.2687 ± 0.0046
x1 = 0.9116	0.2496 ± 0.0044

CCOCC + Nc1ccccc1
298.15 K, 101 kPa
Conditions	viscosity [mPa·s]
x1 = 0.3027	1.359 ± 0.063
x1 = 0.5488	0.669 ± 0.067
x1 = 0.7838	0.38 ± 0.071

Cc1cccc[n+]1CCCO.[Cl-] + O
viscosity [mPa·s], 100 kPa
Conditions	x1 = 0.0008999	x1 = 0.001798	x1 = 0.003589	x1 = 0.005379	x1 = 0.007153	x1 = 0.00892
293.15 K	1.041 ± 0.022	1.068 ± 0.022	1.116 ± 0.023	1.161 ± 0.024	1.203 ± 0.025	1.243 ± 0.026
298.15 K	0.922 ± 0.019	0.945 ± 0.02	0.987 ± 0.021	1.026 ± 0.021	1.063 ± 0.022	1.098 ± 0.023
303.15 K	0.822 ± 0.017	0.841 ± 0.018	0.877 ± 0.018	0.911 ± 0.019	0.943 ± 0.02	0.974 ± 0.02
308.15 K	0.739 ± 0.015	0.756 ± 0.016	0.788 ± 0.016	0.818 ± 0.017	0.846 ± 0.018	0.874 ± 0.018
313.15 K	0.668 ± 0.014	0.682 ± 0.014	0.709 ± 0.015	0.736 ± 0.015	0.761 ± 0.016	0.786 ± 0.016
